Test results reported in patent publication US5665735A, “Unbridged bis-aryl carbinol derivatives compositions and methods of use” (Schering Corporation, priority 1995, dated 1997).
Read-outs that look alike come from different tables or passages of the source.

Experiments:
PAF-induced bronchospasm = test: Agonist-induced bronchospasm in guinea pigs, PAF (in vivo, oral); design: species or system guinea pig (male Hartley)
Method: (§1) In Vivo Studies: Agonist-Induced Responses--Spasmogen-Induced Bronchospasm in Guinea Pigs
(§2) Male Hartley guinea pigs (450-550 g) were obtained from Charles River Breeding Laboratories. The animals were fasted overnight and the following day were anesthetized with 0.9 mL/kg i.p. of dilaurethane (containing 0.1 g/mL diallylbarbituric acid, 0.4 g/ml ethylurea and 0.4 g/ml urethane). The left jugular vein was cannulated for the administration of compounds. The trachea was cannulated and the animals were ventilated by a rodent respirator at 55 strokes/min. with a stroke volume of 4 mL. A side arm to the tracheal cannula was connected to a pressure transducer to obtain a continuous measure of inflation pressure. Bronchoconstriction was measured as the percent increase in inflation pressure that peaked within 5 min. after challenge with spasmogen. […] Each animal was challenged with only a single spasmogen. The effect of a compound on the bronchospasm is expressed as a percent inhibition of the increase in inflation pressure compared to the, increase in a control group.

[1] = system: PAF-induced platelet aggregation; test: Platelet aggregation assay: inhibition of platelet aggregation induced by PAF (in vitro); assay type: cell-based; conditions: Homo sapiens; for inhibition at 0.5 µM: concentration 0.5 μM; for inhibition at 2.5 µM: concentration 2.5 μM; for inhibition at 5 µM: concentration 5 μM; for inhibition at 50 µM: concentration 50 μM; for inhibition at 0.125 µM: concentration 0.125 μM; for inhibition at 0.25 µM: concentration 0.25 μM; for inhibition at 0.12 µM: concentration 0.12 μM; for IC50: read-out: PAF antagonism (in vitro) IC50
Method: A. In Vitro Studies--Platelet Aggregation Assay
Platelet-activating factor (PAF) causes aggregation of platelets by a receptor-mediated mechanism. Therefore, PAF-induced platelet aggregation provides a simple and convenient assay to screen compounds for PAF antagonism.
Blood was centrifuged at 110×g for 15 min. and the supernatant platelet-rich plasma (PRP) carefully transferred into a polypropylene tube. Platelet-poor-plasma (PPP) was prepared by centrifuging PRP at 12,000×g for 2 min. PRP was used within 3 hr. of drawing the blood.
PAF was dissolved in chloroform:methanol (1:1, v/v) at a concentration of 2 mg/mL and stored at -70° C. An aliquot of this solution was transferred to a polypropylene tube and […] under a flow of nitrogen gas. […] The solution was sonicated for 5 min. This stock solution was further diluted to appropriate concentrations in Hepes-saline-BSA buffer. Collagen and adenosine diphosphate (ADP) were purchased as solutions. Test compounds were initially dissolved in dimethyl sulfoxide (DMSO) at a concentration of 50 mM and then further diluted in Hepes-saline-BSA buffer to achieve appropriate concentrations.
When an aggregating agent such as PAF is added to PRP, platelets aggregate. An aggregometer quantifies this aggregation by measuring and comparing light (infra-red) transmission through PPP and PRP. Aggregation assays were performed using a dual-channel aggregometer. PRP (0.45 ml) in aggregometer cuvettes was continually stirred (37° C.). Solutions (50 μL) of test compounds or vehicle were added to the PRP and, after incubation for 2 min., 10-15 μL aliquots of PAF solution were added to achieve a final concentration of 1-5×10^-8 M. In different experiments the aggregatory response was kept within a set limit by varying the concentration of PAF. Incubations were continued until the increase in light transmission reached a maximum (usually 2 min.). This increase in light transmission reflecting platelet aggregation is transmitted to a computer. The computer calculates the slope of transmission change, thus providing the rate of aggregation. Values for inhibition were calculated by comparing rates of aggregation obtained in the absence and the presence of the compound. For each experiment, a standard PAF antagonist such as 8-chloro-6,11-dihydro-11-(1-acetyl-4-piperidylidene)-5H-benzo[5,6]cyclohepta[1,2-b]pyridine was used as a positive control.
Compounds that inhibit PAF-induced aggregation were tested against several other aggregating agents including collagen (0.2 mg/ml) and ADP (2 μM).

[2] = system: histamine-induced bronchospasm; test: Agonist-induced bronchospasm in guinea pigs, histamine (in vivo, oral); design: species or system guinea pig (male Hartley)
Method: as §1, §2

SMILES	PAF agonist bronchospasm % inhibition (PAF-induced bronchospasm; 3 mg/kg)	inhibition at 0.5 µM [1]	inhibition at 5 µM [1]	inhibition at 50 µM [1]	inhibition at 0.25 µM [1]	further results
CC(=O)N1CCC(=C2c3ccc(Cl)cc3CCc3cccnc32)CC1 [Compound D, reference compound]						PAF agonist bronchospasm % inhibition (duration) (PAF-induced bronchospasm; 15 mg/kg, time 4 (unit not given)): 61%; PAF agonist bronchospasm % inhibition (duration) (PAF-induced bronchospasm; 15 mg/kg, time 8 (unit not given)): 32%
O=C(c1cc[n+]([O-])cc1)N1CCC(C(O)(c2ccc(Cl)cc2)c2cccs2)CC1 (centres unmarked) [Formula 1.0A8]	0%	74%	100%	89%		inhibition at 1.25 µM ([1]; concentration 1.25 μM): 26%; inhibition at 2.5 µM [1]: 55%
O=C(c1cc[n+]([O-])cc1)N1CCC(C(O)(c2ccc(Cl)cc2)c2nccs2)CC1 (stereo not drawn) [Formula 1.0A10, α-(4-chlorophenyl)-1-(4-pyridinylcarbonyl)-α-(2-thiazolyl)-4-piperidinemethanol N^1-oxide]	93%	88%	92%	86%	67%	PAF agonist bronchospasm % inhibition (duration) (PAF-induced bronchospasm; 4 mg/kg, time 6 (unit not given)): 99%; Histamine agonist bronchospasm % inhibition ([2]; 10 mg/kg): 12%; inhibition at 0.125 µM [1]: 52%
O=C(c1cc[n+]([O-])cc1)N1CCC(C(O)(c2ccc(Cl)cc2)c2ccccn2)CC1 (centres unmarked) [Formula 1.0A3]	87%	88%	95%	92%	69%	inhibition at 0.063 µM ([1]; concentration 0.063 μM): 41%; inhibition at 0.125 µM [1]: 53%
O=C(c1cc[n+]([O-])cc1)N1CCC(=C2c3ccc(Cl)cc3CCc3cccnc32)CC1 [Compound C, reference compound]						PAF agonist bronchospasm % inhibition (duration) (PAF-induced bronchospasm; 5 mg/kg, time 4 (unit not given)): 37%; PAF agonist bronchospasm % inhibition (duration) (PAF-induced bronchospasm; 5 mg/kg, time 8 (unit not given)): 12%
[O-][n+]1ccc(CN2CCC(C(O)(c3ccccc3)c3cccs3)CC2)cc1 (centres unmarked) [Formula 1.0A5]	20%	59%			41%	inhibition at 0.12 µM [1]: 35%; inhibition at 1.2 µM ([1]; concentration 1.2 μM): 81%; inhibition at 2.5 µM [1]: 91%
[O-][n+]1ccc(CN2CCC(C(O)(c3ccc(Cl)cc3)c3nccs3)CC2)cc1 (centres unmarked) [Formula 1.0A11]		7%	76%	83%		
CCOC(=O)N1CCC(=C2c3ccc(Cl)cc3CCc3cccnc32)CC1 [Compound A, reference compound]						PAF agonist bronchospasm % inhibition (PAF-induced bronchospasm; 10 mg/kg): < 50%; Histamine agonist bronchospasm % inhibition ([2]; 1 mg/kg): > 50%; IC50 [1]: > 50000 nM
[O-][n+]1ccc(CN2CCC(C(O)(c3ccc(Cl)cc3)c3cccs3)CC2)cc1 (centres unmarked) [Formula 1.0A9]			24%	100%		
CC(=O)N1CCC(=C2c3ccc(Cl)cc3CCc3cccnc32)CC1 [Compound B, reference compound]	4%					Histamine agonist bronchospasm % inhibition ([2]; 3 mg/kg): 48%; IC50 ([1]; in vitro, known compounds, for purposes of comparison): 610 nM
O=C(c1cc[n+]([O-])cc1)N1CCC(C(O)(c2ccccn2)c2ccccn2)CC1 [Formula 1.0A1]	93%	97%			68%	inhibition at 0.12 µM [1]: 28%
O=C(c1cc[n+]([O-])cc1)N1CCC(C(O)(c2ccccn2)c2nccs2)CC1 (centres unmarked) [Formula 1.0A12]		58%	98%	100%	47%	
